Data published in patent US20230414771A1, “PREPARATION AND USE OF IMMUNOSTIMULATORY CONJUGATED COMPLEXES FOR TARGETED DELIVERY AND ACTIVATION” (YAFEI SHANGHAI BIOLOGY MEDICINE SCIENCE & TECHNOLOGY CO., …, priority 2020, published 2023).
Where two headings read alike, the source gives them in different places. Where a SMILES comes first, the peptide text is derived from it. The star is where a group is joined. Doxorubicin(3'-N) = COc1cccc2c1C(=O)c1c(O)c3c(c(O)c1C2=O)C[C@@](O)(C(=O)CO)C[C@@H]3O[C@H]1C[C@H](N*)[C@H](O)[C@H](C)O1; Hexanoyl(6-maleimido) = O=C1C=CC(=O)N1CCCCCC(=O)*

Columns and labels:
HSA = HSA (Homo sapiens, UniProt P02768); experiment: Binding of compounds with HSA (albumin coupling); settings: compound with HSA 3:1, 37° C. for 3 h
Chain of HSA (P02768 25-609): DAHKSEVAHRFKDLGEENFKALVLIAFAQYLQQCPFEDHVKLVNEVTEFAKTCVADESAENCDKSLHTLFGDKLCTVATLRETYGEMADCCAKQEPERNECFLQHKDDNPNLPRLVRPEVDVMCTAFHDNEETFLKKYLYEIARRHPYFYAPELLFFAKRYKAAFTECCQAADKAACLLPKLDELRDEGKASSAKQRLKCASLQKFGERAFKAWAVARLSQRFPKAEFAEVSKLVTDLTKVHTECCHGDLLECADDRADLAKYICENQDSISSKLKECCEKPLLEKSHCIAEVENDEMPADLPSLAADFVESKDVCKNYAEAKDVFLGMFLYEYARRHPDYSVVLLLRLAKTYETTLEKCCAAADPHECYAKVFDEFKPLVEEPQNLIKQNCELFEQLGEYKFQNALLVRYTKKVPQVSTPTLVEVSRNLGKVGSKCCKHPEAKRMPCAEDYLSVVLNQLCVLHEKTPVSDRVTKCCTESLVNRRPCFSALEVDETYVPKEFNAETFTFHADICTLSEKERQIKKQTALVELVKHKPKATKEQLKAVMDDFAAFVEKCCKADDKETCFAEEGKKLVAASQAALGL
Protocol: HSA was dissolved in sterile water. The compound was combined with HSA at a ratio of 3:1 (4.8 umol/mL, 1.6 umol/mL), and reacted in a water bath at 37° C. for 3 h. The reaction solution was taken out, and the unbound compound was filtered by pressurized ultrafiltration membrane, diluted with normal saline and filtered for 3 times to obtain the semi-finished product.

[1] = test system: Human prostate cancer PC-3 tumor tissue homogenate; experiment: Activation in PC-3 tumor tissue homogenate; type: biochemical; settings: PC-3 homogenate pH 6.0, 37° C., 1 mg/ml
Protocol: (§1) In the experiments of the present disclosure, 1 mg/ml of the sample compound was added to 100 μg of acidified tumor tissue homogenate (pH 6.0) at 37° C. The enzyme in the tumor tissue homogenate can cause the release of doxorubicin, and the reduction of compound and the increase of doxorubicin could be detected by HPLC to compare the activation efficiency of the drug in the tumor tissue.

[2] = test system: Human breast cancer MDA-MB435 tumor tissue homogenate; experiment: Activation in MDA-MB435 tumor tissue homogenate; type: biochemical; settings: MDA-MB435 homogenate pH 6.0, 37° C., 1 mg/ml
Protocol: as §1

[3] = test system: Human ovarian carcinoma SK-OV-3 tumor tissue homogenate; experiment: Activation in SK-OV-3 tumor tissue homogenate; type: biochemical; settings: SK-OV-3 homogenate pH 6.0, 37° C., 1 mg/ml
Protocol: as §1

[4] = test system: Human colon cancer HT-29 tumor tissue homogenate; experiment: Activation in HT-29 tumor tissue homogenate; type: biochemical; settings: HT-29 homogenate pH 6.0, 37° C., 1 mg/ml
Protocol: as §1

HT1080 tumors = experiment: HT1080 tumor model in nude mice, 36 umol/kg; type: in vivo; settings: for inhibition in vivo at 36 µmol/kg: Mus musculus, read-out: Tumor inhibition rate Day 28
Protocol: • 1. Animals: nude mice aged 6-8 weeks, all female. • 2. Preparation of tumor models • 1) HT1080 cells were purchased from ATCC and characterized according to the instructions provided. […] Randomization was performed when the tumor size reached 100 mm^3. Treatment was then initiated, and the day of initiation of treatment was counted as Day 1. • 3) Treatment process
According to the clinical application of the corresponding compound, the drug was administered intravenously (IV). The compounds indicated in the table were administered at a low dose and at the same dose of 36 umol/kg.

[5] = 0.5 mg/ml, pH 5.5
Protocol: (§2) Add 0.5 ml of sterile water for injection to prepare a 10 mg/ml mother solution. […] Take 30 ul of the mother solution, add 570 ul of buffer solutions with different pH values of 5.5, and prepare a 0.5 mg/ml sample solution. After the sample was clarified, it was placed in a 25° C./37° C. water bath, and after 8 hours, the sample was sampled by HPLC and electrophoresis to detect the content of the sample relative to 0 hours, and the solution stability data of different compounds could be obtained.

[6] = test system: Human hepatoma HepG2 cells; experiment: Human liver cancer HepG2 tumors in nude mice; type: in vivo; settings: for inhibition in vivo at 54 µmol/kg: Mus musculus, read-out: Tumor inhibition rate (%) Day 28
Outline: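 Female nude mice aged 6-8 weeks bearing HepG2 xenografts, randomized at 100 mm^3 tumor size. Dosing IV from Day 1 at 54 umol/kg; DOX at 18 umol/kg.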

[7] = type: physicochemical
Excerpt: The freeze-dried products EMC-AANL-DOX, HSA-EMC-AANL-DOX, HSA-QHL-087-DOX and HSA-QHL-087-N-CBP prepared by the embodiment of the disclosure are subpackaged in a sterile room and redissolved by water for injection.

M2 macrophages = experiment: Cytotoxicity screening, inhibition rate of M2 macrophages at 10 uM; type: cell-based, C57BL/6 mice; settings: 10 uM drug per well, 3 wells, relative to the drug-free group
Protocol: After the cell count in Example 13, the cell concentration was adjusted with the culture medium, and the cells were seeded in a 96-well culture plate at […] of cell suspension per well, wherein the seeding concentration of CD8+ T cells was 100000 cells/well, and the seeding concentration of M2 macrophages was 20000 cells/well. The 96-well plate was incubated overnight for 24 hour at 37° C. in a carbon dioxide (5%) incubator. After 24 hours, 100 ul of cell culture solutions containing different concentrations of drugs were added to the 96-well culture plate. At the same time, a control well (0.1% DMSO) with no drug added and only the corresponding drug solvent and a zero-adjusted well (Blank) with only medium and no cells added was set. Each set was prepared in triplicate and the plates were incubated for 48 hours at 37° C. in a 5% CO2 incubator. After 48 hours, 20 μl MTT (5 mg/ml) was added to each well and the incubation was continued for 4 hours. The culture medium was then gently aspirated, and 150 μl DMSO was added to each well as solvent for dissolution. After dissolution, the absorbance at 490 nm was measured with a microplate reader.
Cytotoxicity screening experiments for some compounds were performed for M2 macrophage inhibition as in embodiment 14.

[8] = test system: Human pancreatic carcinoma Panc-1 tumor tissue homogenate; experiment: Activation in Panc-1 tumor tissue homogenate; type: biochemical; settings: Panc-1 homogenate pH 6.0, 37° C., 1 mg/ml
Protocol: as §1

BALB/C mice = experiment: Acute toxicity (MTD) of intravenous administration in mice; type: in vivo; settings: 38.4 μmol/kg intravenous, 10 mice, observed 17 days
Protocol: They were randomly divided into 7 groups according to body weight, 10 mice in each group. […] The control test of saline group and paclitaxel group injection (commercially available, Beijing Youcare pharmaceutical) was carried out, the volume of administration was 0.2 ml for each mouse.

[9] = Solution stability, HPLC and electrophoresis; settings: 0.5 mg/ml, pH 5.5, 25° C.
Protocol: as §2

Compound: COc1cccc2c1C(=O)c1c(O)c3c(c(O)c1C2=O)C[C@@](O)(C(=O)CO)C[C@@H]3O[C@H]1C[C@H](NC(=O)[C@H](CC(C)C)NC(=O)[C@H](CC(N)=O)NC(=O)[C@H](C)NC(=O)[C@H](C)NC(=O)CCCCCN2C(=O)C=CC2=O)[C@H](O)[C@H](C)O1 [EMC-AANL-DOX] ({Hexanoyl(6-maleimido)}-AANL-{Doxorubicin(3'-N)})
- binding rates of HSA (HSA): 62%
- Compound activation ratios (%) [1]: 37.3%
- Compound activation ratios (%) [2]: 42.3%
- Compound activation ratios (%) [3]: 58.4%
- Compound activation ratios (%) [4]: 49.4%
- Tumor volume (mm^3) Day 28 (HT1080 tumors; 36 umol/kg IV once a week for 3 weeks): 138.3 ± 124.6 mm^3
- inhibition in vivo at 36 µmol/kg (HT1080 tumors; HT-1080, 672 h, 36 umol/kg IV once a week for 3 weeks): 92.1%
- Stability data of the solution, 8 hr (content relative to 0 hours) [5]: 94.3%
- Tumor volume (mm^3) Day 28 ([6]; 54 umol/kg IV once a week for 4 weeks): 218.3 ± 167.7 mm^3
- inhibition in vivo at 54 µmol/kg ([6]; HepG2, 672 h, 54 umol/kg IV once a week for 4 weeks): 92.5%
- therapeutic effect on liver cancer, in words ([6]; same molar dose): good effect on the treatment of liver cancer
- Solubility in water for injection [7]: Insolubility
- Inhibition rate of M2 macrophages (M2 macrophages): 34.6%
- Compound activation ratios (%) [8]: 54.8%
- Number of dead mice (BALB/C mice): 8

Compound: COc1cccc2c1C(=O)c1c(O)c3c(c(O)c1C2=O)C[C@@](O)(C(=O)CO)C[C@@H]3O[C@H]1C[C@H](NC(=O)[C@H](CC(C)C)NC(=O)[C@H](CC(N)=O)NC(=O)[C@H](C)NC(=O)[C@H](C)NC(=O)CCOCCOCCNC(=O)CCN2C(=O)C=CC2=O)[C@H](O)[C@H](C)O1 [QHL-087-DOX]
- inhibition in vivo at 36 µmol/kg (HT1080 tumors; HT-1080, iv, 672 h): 100%
- inhibition in vivo at 54 µmol/kg ([6]; HepG2, iv, 672 h): 100%
- Stability data of the solution, 8 hr (content relative to 0 hours) [9]: 98.2%
- Number of dead mice (BALB/C mice): 4
